Laboratory results published in patent US9790215B2 (FLATLEY DISCOVERY LAB, LLC, priority 2013, dated 2017).
pEC50: −log10 of the molar value.

Molecular target: T1, human ΔF508-CFTR (Homo sapiens, UniProt P13569, DEL508-508)
T1 construct: expressed in transfected cells
Test: CFTR-YFP High Throughput Assay (YFP halide flux in FRT cells)
Type: cell-based
Details: FRT cells expressing human ΔF508-CFTR and YFP; for pEC50: forskolin stimulated
Outline: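 FRT cells stably co-expressing human ΔF508-CFTR and halide-sensitive YFP-H148Q/I152L were treated with compound […] for 24–26 h at 37 °C (corrector mode), washed, then stimulated with 20 μM forskolin plus 30 μM potentiator P3 for 60–120 min at room temperature. Iodide-induced YFP quench (ex 500/em 540 nm) rates came from least-squares fitting.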

T1 sequence (P13569 with tags, fused parts or gaps DEL508-508): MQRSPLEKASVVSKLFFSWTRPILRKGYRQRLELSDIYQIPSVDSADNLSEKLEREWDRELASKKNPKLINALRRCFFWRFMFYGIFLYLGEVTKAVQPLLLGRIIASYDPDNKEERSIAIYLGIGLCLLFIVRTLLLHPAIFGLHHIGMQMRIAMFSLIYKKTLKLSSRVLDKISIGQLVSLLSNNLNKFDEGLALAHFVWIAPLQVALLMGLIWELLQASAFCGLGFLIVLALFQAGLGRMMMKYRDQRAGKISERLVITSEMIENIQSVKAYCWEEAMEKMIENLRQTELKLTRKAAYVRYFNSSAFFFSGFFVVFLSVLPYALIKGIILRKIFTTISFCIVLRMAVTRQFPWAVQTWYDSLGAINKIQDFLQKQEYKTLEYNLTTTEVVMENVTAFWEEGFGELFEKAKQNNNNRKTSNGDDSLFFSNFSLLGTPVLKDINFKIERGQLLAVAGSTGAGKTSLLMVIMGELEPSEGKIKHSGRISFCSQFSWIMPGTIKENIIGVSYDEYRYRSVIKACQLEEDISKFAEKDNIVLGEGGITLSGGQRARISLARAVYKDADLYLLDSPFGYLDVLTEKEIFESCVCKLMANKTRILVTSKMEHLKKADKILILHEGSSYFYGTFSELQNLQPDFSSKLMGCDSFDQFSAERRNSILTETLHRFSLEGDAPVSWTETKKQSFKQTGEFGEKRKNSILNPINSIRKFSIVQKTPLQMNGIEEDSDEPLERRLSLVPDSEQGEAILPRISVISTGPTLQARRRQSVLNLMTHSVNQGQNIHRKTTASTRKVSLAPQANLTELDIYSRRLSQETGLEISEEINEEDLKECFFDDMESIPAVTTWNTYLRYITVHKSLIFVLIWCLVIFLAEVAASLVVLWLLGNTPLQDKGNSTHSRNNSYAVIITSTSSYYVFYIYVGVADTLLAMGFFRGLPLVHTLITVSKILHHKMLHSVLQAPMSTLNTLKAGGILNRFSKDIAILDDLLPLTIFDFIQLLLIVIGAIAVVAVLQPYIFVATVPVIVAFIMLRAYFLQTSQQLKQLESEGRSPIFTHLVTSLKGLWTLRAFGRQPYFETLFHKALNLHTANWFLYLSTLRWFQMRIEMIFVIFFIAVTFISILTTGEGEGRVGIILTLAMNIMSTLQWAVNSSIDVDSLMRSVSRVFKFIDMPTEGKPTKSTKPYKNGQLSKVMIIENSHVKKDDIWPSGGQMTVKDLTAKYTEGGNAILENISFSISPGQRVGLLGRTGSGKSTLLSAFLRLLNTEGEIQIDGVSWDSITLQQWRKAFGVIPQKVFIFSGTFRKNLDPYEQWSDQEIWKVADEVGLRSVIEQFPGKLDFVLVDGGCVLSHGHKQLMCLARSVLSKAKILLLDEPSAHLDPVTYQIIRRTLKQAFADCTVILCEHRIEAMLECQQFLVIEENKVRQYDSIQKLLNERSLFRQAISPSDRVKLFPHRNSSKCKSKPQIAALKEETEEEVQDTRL

CCN(C(=O)Cn1nc(C(=O)N(CC)c2cccc(Cl)c2)c2c3ccccc3n(C)c2c1=O)c1ccc2c(c1)OC(F)(F)O2 [Example 141, N-(3-chlorophenyl)-3-(2-((2,2-difluorobenzo[d][1,3]dioxol-5-yl)(ethyl)amino)-2-oxoethyl)-N-ethyl-5-methyl-4-oxo-4,5-dihydro-3H-pyridazino[4,5-b]indole-1-carboxamide]
pEC50: > 5.00

CCc1ccc(N(CC)C(=O)Cn2nc(C(=O)N(CC)c3cccc(Cl)c3)c3c4ccccc4n(C)c3c2=O)cc1 [Example 142, N-(3-chlorophenyl)-N-ethyl-3-(2-(ethyl(4-ethylphenyl)amino)-2-oxoethyl)-5-methyl-4-oxo-4,5-dihydro-3H-pyridazino[4,5-b]indole-1-carboxamide]
pEC50: > 5.00

CCN(C(=O)c1nn(C2CCCCC2)c(=O)c2c1c1ccccc1n2C)c1cccc(Cl)c1 [Example 143, N-(3-chlorophenyl)-3-cyclohexyl-N-ethyl-5-methyl-4-oxo-4,5-dihydro-3H-pyridazino[4,5-b]indole-1-carboxamide]
pEC50: > 5.00

CCN(C(=O)c1nn(C(C)C)c(=O)c2c1c1ccccc1n2C)c1cc(Cl)ccc1C#N [Example 144, N-(5-chloro-2-cyanophenyl)-N-ethyl-3-isopropyl-5-methyl-4-oxo-4,5-dihydro-3H-pyridazino[4,5-b]indole-1-carboxamide]
pEC50: > 5.00

CCN(CC)C(=O)c1nn(CC(=O)N(CC)c2ccc3c(c2)OC(F)(F)O3)c(=O)c2c1c1ccccc1n2C [Example 145, 3-(2-((2,2-difluorobenzo[d][1,3]dioxol-5-yl)(ethyl)amino)-2-oxoethyl)-N,N-diethyl-5-methyl-4-oxo-4,5-dihydro-3H-pyridazino[4,5-b] indole-1-carboxamide]
pEC50: > 5.00

CCN(C(=O)c1nn(-c2ccc(C)cc2)c(=O)c2c1c1ccccc1n2C1CCC1)c1ccccc1 [Example 146, 5-cyclobutyl-N-ethyl-4-oxo-N-phenyl-3-p-tolyl-4,5-dihydro-3H-pyridazino[4,5-b]indole-1-carboxamide]
pEC50: 4.70 to 5.00

CCN(C(=O)c1nn(-c2ccc(C)cc2)c(=O)c2[nH]c3ccccc3c12)c1ccccc1 [Example 147, N-Ethyl-4-oxo-N-phenyl-3-p-tolyl-4,5-dihydro-3H-pyridazino[4,5-b]indole-1-carboxamide]
pEC50: > 5.00

CCN(C(=O)c1nn(-c2ccc(C)cc2)c(=O)c2[nH]c3ccccc3c12)c1cccc(Cl)c1 [Example 148, N-(3-chlorophenyl)-N-ethyl-4-oxo-3-(p-tolyl)-4,5-dihydro-3H-pyridazino[4,5-b]indole-1-carboxamide]
pEC50: > 5.00

CCN(C(=O)Cn1ncc2c([nH]c3ccccc32)c1=O)c1ccc2c(c1)OC(F)(F)O2 [Example 149, N-(2,2-difluorobenzo[d][1,3]dioxol-5-yl)-N-ethyl-2-(4-oxo-4,5-dihydro-3H-pyridazino[4,5-b]indol-3-yl)acetamide]
pEC50: > 5.00

CCN(C(=O)c1nn(-c2ccc(C)cc2)c(=O)c2c1c1ccccc1n2CC#N)c1ccccc1 [Example 150, 5-(cyanomethyl)-N-ethyl-4-oxo-N-phenyl-3-(p-tolyl)-4,5-dihydro-3H-pyridazino[4,5-b]indole-1-carboxamide]
pEC50: < 4.70

CCN(C(=O)c1nn(-c2ccc(C)cc2)c(=O)c2c1c1ccccc1n2CC(=O)O)c1ccccc1 [Example 151, 2-(1-(ethyl(phenyl)carbamoyl)-4-oxo-3-(p-tolyl)-3H-pyridazino[4,5-b]indol-5(4H)-yl)acetic acid]
pEC50: < 4.70

CCN(C(=O)c1nn(-c2ccc(C)cc2)c(=O)c2c1c1ccccc1n2C(C)C)c1ccccc1 [Example 152, N-ethyl-5-isopropyl-4-oxo-N-phenyl-3-(p-tolyl)-4,5-dihydro-3H-pyridazino[4,5-b]indole-1-carboxamide]
pEC50: < 4.70

CCN(C(=O)c1nn(-c2ccc(C)cc2)c(=O)c2c1c1ccccc1n2Cc1ccccn1)c1ccccc1 [Example 153, N-ethyl-4-oxo-N-phenyl-5-(pyridin-2-ylmethyl)-3-(p-tolyl)-4,5-dihydro-3H-pyridazino[4,5-b]indole-1-carboxamide]
pEC50: < 4.70

CCN(C(=O)Cn1nc(Cc2cccnc2)c2c3ccccc3n(C)c2c1=O)c1ccc2c(c1)OC(F)(F)O2 [Example 157, N-(2,2-difluorobenzo[d][1,3]dioxol-5-yl)-N-ethyl-2-(5-methyl-4-oxo-1-(pyridin-3-ylmethyl)-4,5-dihydro-3H-pyridazino[4,5-b]indol-3-yl)acetamide]
pEC50: < 4.70

N-(2,2-difluorobenzo[d][1,3]dioxol-5-yl)-N-ethyl-2-(1-oxo-4-(4-sulfamoyl-phenyl)phthalazin-2(1H)-yl)acetamide [Example 17]
% Efficacy (Emax normalized to the positive control): ++ (a range of 80%-30%) | pEC50: > 5.00

N-(2,2-difluorobenzo[d][1,3]dioxol-5-yl)-N-ethyl-2-(1-oxo-4-(pyridin-3-yl)phthalazin-2(1H)-yl)acetamide [Example 23]
% Efficacy (Emax normalized to the positive control): ++ (a range of 80%-30%) | pEC50: 4.70 to 5.00

N-(2,2-difluorobenzo[d][1,3]dioxol-5-yl)-N-ethyl-2-(4-(3-fluorophenyl)-1-oxophthalazin-2(1H)-yl)acetamide [Example 22]
% Efficacy (Emax normalized to the positive control): ++ (a range of 80%-30%) | pEC50: > 5.00

N-ethyl-N-(4-ethylphenyl)-2-(1-oxo-4-(4-sulfamoylphenyl)phthalazin-2(1H)-yl)acetamide [Example 12]
% Efficacy (Emax normalized to the positive control): ++ (a range of 80%-30%) | pEC50: < 4.70

N-ethyl-N-(4-ethylphenyl)-2-(4-(3-hydroxyphenyl)-1-oxophthalazin-2(1H)-yl)acetamide [Example 8]
% Efficacy (Emax normalized to the positive control): ++ (a range of 80%-30%) | pEC50: > 5.00

N-ethyl-N-(4-ethylphenyl)-2-(4-(4-(methylsulfonyl)phenyl)-1-oxophthalazin-2(1H)-yl)acetamide [Example 15]
% Efficacy (Emax normalized to the positive control): + (a range of 30%-10%) | pEC50: < 4.70

methyl 4-(3-(2-(ethyl(4-ethylphenyl)amino)-2-oxoethyl)-4-oxo-3,4-dihydrophthalazin-1-yl)benzoate [Example 14]
% Efficacy (Emax normalized to the positive control): ++ (a range of 80%-30%) | pEC50: < 4.70
